What was measured:
Format in all cases: protein-complex assay
[1] = target: T1, Cyclin-dependent kinase 5/CDK5 activator 1 (Homo sapiens, UniProt Q00535); assay: Inhibition of CDK5/p25 (unknown origin) after 30 mins by SDS-PAGE analysis
[2] = target: T2, Cyclin-dependent kinase 5/CDK5 activator 1 (Homo sapiens) (UniProt Q00535+Q15078); assay: Inhibition of CDK5/p25 (unknown origin)-mediated incorporation of gamma33P into substrate assessed as change in enzyme activity at 0.5 uM after 20 mins by scintillation counting analysis in presence of 33P-ATP relative to negative control; parameters: scale not given: the % may be the effect or the level left
T2 sequence (Q00535 whole entry): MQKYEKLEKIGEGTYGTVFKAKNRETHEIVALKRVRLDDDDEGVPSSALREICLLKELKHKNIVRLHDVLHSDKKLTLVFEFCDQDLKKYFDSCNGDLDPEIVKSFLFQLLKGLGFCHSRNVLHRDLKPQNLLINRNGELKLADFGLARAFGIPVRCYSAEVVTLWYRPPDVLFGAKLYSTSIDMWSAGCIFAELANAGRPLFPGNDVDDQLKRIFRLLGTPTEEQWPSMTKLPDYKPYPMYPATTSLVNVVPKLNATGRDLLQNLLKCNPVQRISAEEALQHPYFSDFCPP
T2 sequence (Q15078 99-307 partner limits assumed): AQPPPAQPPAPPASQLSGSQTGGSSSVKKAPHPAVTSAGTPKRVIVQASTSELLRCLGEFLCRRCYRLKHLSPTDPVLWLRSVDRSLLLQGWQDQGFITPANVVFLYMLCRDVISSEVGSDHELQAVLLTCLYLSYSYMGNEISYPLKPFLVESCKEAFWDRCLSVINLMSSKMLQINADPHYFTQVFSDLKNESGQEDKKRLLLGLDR

[3] = target: T2, Cyclin-dependent kinase 5/CDK5 activator 1 (Homo sapiens); assay: Inhibition of CDK5/p25 (unknown origin)-mediated incorporation of gamma33P into substrate assessed as change in enzyme activity at 50 uM after 20 mins by scintillation counting analysis in presence of 33P-ATP relative to negative control; parameters: scale not given: the % may be the effect or the level left
[4] = target: T2, Cyclin-dependent kinase 5/CDK5 activator 1 (Homo sapiens); assay: Inhibition of CDK5/p25 (unknown origin)-mediated incorporation of gamma33P into substrate assessed as change in enzyme activity at 5 uM after 20 mins by scintillation counting analysis in presence of 33P-ATP relative to negative control; parameters: scale not given: the % may be the effect or the level left
[5] = target: T2, Cyclin-dependent kinase 5/CDK5 activator 1 (Homo sapiens); assay: Inhibition of CDK5/p25 (unknown origin)-mediated incorporation of gamma33P into substrate assessed as change in enzyme activity at 0.005 uM after 20 mins by scintillation counting analysis in presence of 33P-ATP relative to negative control; parameters: scale not given: the % may be the effect or the level left
[6] = target: T1, Cyclin-dependent kinase 5/CDK5 activator 1; assay: Inhibition of CDK5/p25 (unknown origin)-mediated incorporation of gamma33P into substrate after 20 mins by scintillation counting analysis in presence of 33P-ATP
[7] = target: T2, Cyclin-dependent kinase 5/CDK5 activator 1 (Homo sapiens); assay: Inhibition of CDK5/p25 (unknown origin)-mediated incorporation of gamma33P into substrate assessed as change in enzyme activity at 0.05 uM after 20 mins by scintillation counting analysis in presence of 33P-ATP relative to negative control; parameters: scale not given: the % may be the effect or the level left

T1 sequence (Q00535 whole entry): as the sequence (Q00535 whole entry) above
T1 sequence (Q15078 whole entry, further chain): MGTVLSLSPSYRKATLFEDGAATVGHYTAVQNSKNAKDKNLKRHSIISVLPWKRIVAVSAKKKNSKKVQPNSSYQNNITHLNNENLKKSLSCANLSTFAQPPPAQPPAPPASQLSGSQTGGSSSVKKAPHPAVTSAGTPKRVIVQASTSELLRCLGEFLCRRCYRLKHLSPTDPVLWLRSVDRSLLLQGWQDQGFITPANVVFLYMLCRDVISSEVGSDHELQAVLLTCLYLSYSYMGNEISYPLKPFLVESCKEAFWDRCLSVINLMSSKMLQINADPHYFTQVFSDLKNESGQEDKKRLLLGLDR

| Compound | IC50 [1] [µM] | Activity [2] [%] | Activity [3] [%] | Activity [4] [%] | Activity [5] [%] | IC50 [6] [µM] | Activity [7] [%] |
| --- | --- | --- | --- | --- | --- | --- | --- |
| O=C1c2c(O[C@@H]3O[C@H](CO)[C@@H](O)[C@H](O)[C@H]3O)cc(O)cc2OC1(O)Cc1ccc(O)cc1 (some centres undefined) | 44.4 | 2 | -15 | -7 | -3 | > 50 | 1 |
| O=C1/C(=C/c2ccc(O)c(O)c2)Oc2cc(O[C@@H]3O[C@H](CO)[C@@H](O)[C@H](O)[C@H]3O)cc(O)c21 | 22.3 | -5 | -65 | -20 | -2 | 24.3 | -4 |
| O=C1/C(=C/c2ccc(O)c(O)c2)Oc2cc(O)ccc21 [SULFURETIN] | 37 |  |  |  |  |  |  |
| O=C1/C(=C/c2ccc(O)c(O)c2)Oc2cc(O)cc(O)c21 [AUREUSIDIN] | 3.5 | -20 | -88 | -47 | 0 | 4.81 | -2 |

Continued by falling IC50 [1], values first:

| IC50 [1] [µM] | Activity [2] [%] | Activity [3] [%] | Activity [4] [%] | Activity [5] [%] | IC50 [6] [µM] | Activity [7] [%] | Compound |
| --- | --- | --- | --- | --- | --- | --- | --- |
| 10.3 |  |  |  |  |  |  | O=c1c(O[C@@H]2O[C@H](CO)[C@H](O)[C@H](O)[C@H]2O)c(-c2ccc(O)c(O)c2)oc2cc(O)cc(O)c12 [HYPEROSIDE] |
| 9.29 |  |  |  |  |  |  | O=c1cc(-c2ccc(O)cc2)oc2c(-c3c(O)cc(O)c4c(=O)cc(-c5ccc(O)cc5)oc34)c(O)cc(O)c12 [CUPRESSUFLAVONE] |
